US6869964B2, “Heterocyclicsulfonamide hepatitis C virus inhibitors” (Bristol-Myers Squibb Company, priority 2002, dated 2005)

Key:
[1] = target: T1, HCV NS3/4A protease complex (BMS strain) (Hepatitis C virus genotype 1a, UniProt P27958, C1454S); experiment: Recombinant HCV NS3/4A protease complex FRET peptide assay, BMS strain; type: biochemical, HCV genotype 1a; conditions: NS3/4A BMS Strain, activity range; read-out: IC50 a, b, c (Activity Table)
T1 construct: HCV NS3/4A protease complex (amino acids 1027 to 1711); inferred from pET21b vector and Ni-NTA purification; made in house; host or cells: Escherichia coli BL21 (DE3), pET21b
Source text: Recombinant HCV NS3/4A Protease Complex FRET Peptide Assay
The purpose of this in vitro assay was to measure the inhibition of HCV NS3 protease complexes, derived from the BMS, H77C or J4l6S strains, as described below, by compounds of the present invention. This assay provides an indication of how effective compounds of the present invention would be in inhibiting HCV proteolytic activity.
Serum from an HCV-infected patient was obtained from Dr. T. Wright, San Francisco Hospital. An engineered full-length cDNA template of the HCV genome (BMS strain) was constructed from DNA fragments obtained by reverse transcription-PCR (RT-PCR) of serum RNA and using primers selected on the basis of homology between other genotype la strains. From the determination of the entire genome sequence, a genotype la was assigned to the HCV isolate according to the classification of Simmonds et al. (See P Simmonds, K A Rose, S Graham, S W Chan, F McOmish, B C Dow, E A Follett, P L Yap and H Marsden, J. Clin. Microbiol., 31(6), 1493-1503 (1993)). […] The infectious clones, H77C (1a genotype) and J4 L6S (1b genotype) were obtained from R. Purcell (NIH) and the sequences are published in Genbank (AAB67036, see Yanagi, M., Purcell, R. H., Emerson, S. U. and Bukh, J. Proc. Natl. Acad. Sci. U.S.A. 94(16),8738-8743 (1997); AF054247, see Yanagi, M., St Claire, M., Shapiro, M., Emerson, S. U., Purcell, R. H. and Bukh, J, Virology 244 (1), 161-172. (1998)).
The BMS, H77C and J4 L6S strains were used for production of recombinant NS3/4A protease complexes. DNA encoding the recombinant HCV NS3/4A protease complex (amino acids 1027 to 1711) for these strains were manipulated as described by P. Gallinari et al. (see Gallinari P, Paolini C, Brennan D, Nardi C, Steinkuhler C, De Francesco R. Biochemistry. 38(17):5620-32, (1999)). Briefly, a three-lysine solubilizing tail was added at the 3′-end of the NS4A coding region. The cysteine in the P1 position of the NS4A-NS4B cleavage site (amino acid 1711) was changed to a glycine to avoid the proteolytic cleavage of the lysine tag. Furthermore, a cysteine to serine mutation was introduced by PCR at amino acid position 1454 to prevent the autolytic cleavage in the NS3 helicase domain. The variant DNA fragment was cloned in the pET21b bacterial expression vector (Novagen) and the NS3/4A complex was expressed in Escherichia coli strain BL21 (DE3) (Invitrogen) following the protocol described by P. Gallinari et al. (see Gallinari P, Brennan D, Nardi C, Brunetti M, Tomei L, Steinkuhler C, De Francesco R., J Virol. 72(8):6758-69 (1998)) with modifications. Briefly, NS3/4A expression was induced with 0.5 mM Isopropyl β-D-1-thiogalactopyranoside (IPTG) for 22 hr at 20° C. A typical fermentation (10 L) yielded approximately 80 g of wet cell paste. The cells were resuspended in lysis buffer (10 mL/g) consisting of 25 mM N-(2-Hydroxyethyl)Piperazine-N′-(2-Ethane Sulfonic acid) (HEPES), pH7.5, 20% glycerol, 500 mM Sodium Chloride (NaCl), 0.5% Triton-X100, 1 ug/ml lysozyme, 5 mM Magnesium Chloride (MgCl2), 1 ug/ml DnaseI, 5 mM β-Mercaptoethanol (βME), Protease inhibitor—Ethylenediamine Tetraacetic acid (EDTA) free (Roche), homogenized and incubated for 20 mins at 4° C. The homogenate was sonicated and clarified by ultra-centrifugation at 235000 g for lhr at 4° C. Imidazole was added to the supernatant to a final concentration of 15 mM and the pH adjusted to 8.0. The crude protein extract was loaded on a Nickel—Nitrilotriacetic acid (Ni—NTA) column pre-equilibrated with buffer B (25 mM HEPES, pH8.0, 20% glycerol, 500 mM NaCl, 0.5% Triton-X100, 15 mM imidazole, 5 mM βME). The sample was loaded at a flow rate of 1 mL/min. The column was washed with 15 column volumes of buffer C (same as buffer B except with 0.2% Triton-X100). The protein was eluted with 5 column volumes of buffer D (same as buffer C except with 200 mM Imidazole). […]

[2] = tested on: HCV replicon in Huh7 cells; experiment: HCV replicon cell-based assay (FRET); parameters: species or system HCV strain 1B; conditions: Hepatitis C virus, Huh-7; replicon, activity range; read-out: EC50 a, b, c (Activity Table)
Source text: HCV Replicon Cell-based Assay
An HCV replicon whole cell system was established as described by Lohmann V, Korner F, Koch J, Herian U, Theilmann L, Bartenschlager R., Science 285(5424): 110-3 (1999). This system enabled us to evaluate the effects of our HCV Protease compounds on HICV RNA replication. Briefly, using the HCV strain 1B sequence described in the Lohmann paper (Assession number: AJ238799), an HCV cDNA was generated encoding the 5′ internal ribosome entry site (IRES), the neomycin resistance gene, the EMCV (encephalomyocarditis virus)-IRES and the HCV nonstructural proteins, NS3-NS5B, and 3′ non-translated region (NTR). In vitro transcripts of the cDNA were transfected into the human hepatoma cell line, Huh7. […] Resulting cell lines were characterized for positive and negative strand RNA production and protein production over time.
Huh7 cells, constitutively expressing the HCV replicon, were grown in Dulbecco's Modified Eagle Media (DMEM) containing 10% Fetal calf serum (FCS) and 1 mg/ml G418 (Gibco-BRL). Cells were seeded the night before (1.5×10^4 cells/well) in 96-well tissue-culture sterile plates. Compound and no compound controls were prepared in DMEM containing 4% FCS, 1:100 Penicillin/Streptomysin, 1:100 L-glutamine and 5% DMSO in the dilution plate (0.5% DMSO final concentration in the assay). Compound/DMSO mixes were added to the cells and incubated for 4 days at 37° C. After 4 days, plates were rinsed thoroughly with Phosphate-Buffered Saline (PBS) (3 times 150 μl). The cells were lysed with 25 μl of a lysis assay reagent containing the FRET peptide (RET S1, as described for the in vitro enzyme assay). The lysis assay reagent was made from 5× cell Luciferase cell culture lysis reagent(Promega #E153A) diluted to 1× with distilled water, NaCl added to 150 mM final, the FRET peptide diluted to 10 μM final from a 2 mM stock in 100% DMSO. The plate was then placed into the Cytofluor 4000 instrument which had been set to 340 nm excitation/490 emission, automatic mode for 21 cycles and the plate read in a kinetic mode. EC50 determinations were carried out as described for the IC50 determinations.

T1 sequence (P27958 1027-1657 C1454S): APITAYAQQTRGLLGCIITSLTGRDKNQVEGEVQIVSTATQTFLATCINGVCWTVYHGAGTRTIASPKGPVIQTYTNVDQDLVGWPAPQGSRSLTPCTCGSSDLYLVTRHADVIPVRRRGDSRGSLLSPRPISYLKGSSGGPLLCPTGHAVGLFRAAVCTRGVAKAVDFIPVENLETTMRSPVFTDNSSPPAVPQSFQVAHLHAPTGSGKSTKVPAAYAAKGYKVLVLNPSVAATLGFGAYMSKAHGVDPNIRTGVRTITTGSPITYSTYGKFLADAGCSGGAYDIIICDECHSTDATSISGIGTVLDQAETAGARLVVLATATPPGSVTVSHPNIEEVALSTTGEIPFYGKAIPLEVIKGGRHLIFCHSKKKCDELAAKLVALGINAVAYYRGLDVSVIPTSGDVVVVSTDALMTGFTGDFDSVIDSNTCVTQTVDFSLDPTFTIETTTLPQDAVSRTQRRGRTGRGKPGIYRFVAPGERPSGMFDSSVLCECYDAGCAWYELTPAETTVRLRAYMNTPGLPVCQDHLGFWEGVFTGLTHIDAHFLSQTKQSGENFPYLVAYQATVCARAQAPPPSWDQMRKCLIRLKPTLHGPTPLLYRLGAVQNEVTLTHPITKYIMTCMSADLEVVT
T1 sequence (P27958 1658-1711 partner, looked up, stated change not applied): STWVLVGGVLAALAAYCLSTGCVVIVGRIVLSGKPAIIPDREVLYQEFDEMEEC

C=CC1C[C@]1(NC(=O)[C@@H]1C[C@@H](Oc2cc(-c3ccccc3)nc3cc(OC)ccc23)CN1C(=O)[C@@H](NC(=O)OC(C)(C)C)C(C)(C)C)C(=O)NS(=O)(=O)C1CCS(=O)(=O)C1 (mixture of isomers) [Compound 13, {1-[2-[1-(1,1-Dioxo-tetrahydro-1H-1[…]6-thiophene-3(R/S)-sulfonylaminocarbonyl)-2-vinylcyclopropylcarbamoyl]-4-(7-methoxy-2-phenyl-quinolin-4-yloxy)pyrrolidine-1-carbonyl]-2,2-dimethylpropyl}carbamic acid tert-butyl ester]
IC50 [1]: < 100 nM
EC50 [2]: 100 to 1000 nM

C=CC1C[C@]1(NC(=O)[C@@H]1C[C@@H](Oc2cc(-c3ccccc3)nc3cc(OC)ccc23)CN1C(=O)[C@@H](NC(=O)OC(C)(C)C)C(C)(C)C)C(=O)NS(=O)(=O)c1ccc(Cl)s1 (stereo in doubt) [Compound 2, (1-{4-(7-Methoxy-2-phenylquinolin-4-yloxy)-2-[1-(5-Chlorothiophene-2-sulfonylaminocarbonyl)-2-vinyl-cyclopropylcarbamoyl]-pyrrolidine-1-carbonyl}-2,2-dimethylpropyl)carbamic acid tert-butyl ester]
IC50 [1]: < 100 nM
EC50 [2]: 100 to 1000 nM

C=CC1C[C@]1(NC(=O)[C@@H]1C[C@@H](Oc2cc(-c3ccccc3)nc3cc(OC)ccc23)CN1C(=O)[C@@H](NC(=O)OC(C)(C)C)C(C)(C)C)C(=O)NS(=O)(=O)c1ccc([N+](=O)[O-])s1 (stereo in doubt) [Compound 3, (1-{4-(7-Methoxy-2-phenylquinolin-4-yloxy)-2-[1-(5-Nitrothiophene-2-sulfonylaminocarbonyl)-2-vinyl-cyclopropylcarbamoyl]pyrrolidine-1-carbonyl}-2,2-dimethylpropyl)carbamic acid tert-butyl ester]
IC50 [1]: 100 to 1000 nM
EC50 [2]: 100 to 1000 nM

C=CC1C[C@]1(NC(=O)[C@@H]1C[C@@H](Oc2cc(-c3ccccc3)nc3cc(OC)ccc23)CN1C(=O)[C@@H](NC(=O)OC(C)(C)C)C(C)(C)C)C(=O)NS(=O)(=O)c1ccc(Br)s1 (stereo in doubt) [Compound 4, (1-{4-(7-Methoxy-2-phenylquinolin-4-yloxy)-2-[1-(5-Bromothiophene-2-sulfonylaminocarbonyl)-2-vinyl-cyclopropylcarbamoyl]pyrrolidine-1-carbonyl}-2,2-dimethylpropyl)carbamic acid tert-butyl ester]
IC50 [1]: < 100 nM
EC50 [2]: 100 to 1000 nM

C=CC1C[C@]1(NC(=O)[C@@H]1C[C@@H](Oc2cc(-c3ccccc3)nc3cc(OC)ccc23)CN1C(=O)[C@@H](NC(=O)OC(C)(C)C)C(C)(C)C)C(=O)NS(=O)(=O)c1ccc(Sc2ccc(Cl)cc2)s1 (stereo in doubt) [Compound 5, {1-[2-{1-[5-(4-Chlorophenylsulfanyl)-thiophene-2-sulfonylamino-carbonyl]-2-vinyl-cyclopropylcarbamoyl}-4-(7-methoxy-2-phenyl-quinolin-4-yloxy)-pyrrolidine-1-carbonyl]-2,2-dimethylpropyl}carbamic acid tert-butyl ester]
IC50 [1]: 100 to 1000 nM
EC50 [2]: 1000 to 10000 nM

C=CC1C[C@]1(NC(=O)[C@@H]1C[C@@H](Oc2cc(-c3ccccc3)nc3cc(OC)ccc23)CN1C(=O)[C@@H](NC(=O)OC(C)(C)C)C(C)(C)C)C(=O)NS(=O)(=O)c1cc(Br)c(Cl)s1 (stereo in doubt) [Compound 7, {1-[2-{1-[4-Bromo-5-chlorothiophene-2-sulfonylamino-carbonyl]-2-vinylcyclopropylcarbamoyl}-4-(7-methoxy-2-phenyl-quinolin-4-yloxy)pyrrolidine-1-carbonyl]-2,2-dimethylpropyl}carbamic acid tert-butyl ester]
IC50 [1]: < 100 nM
EC50 [2]: 1000 to 10000 nM
